Holding throughout (type): cell-based
A short description of data set [1]: Mitotoxicity / Mitotox safety margin (therapeutic window).
Data set [2] concerns HeLa MKYP cells. The data set is described as follows: Cell death measured by DAPI staining, with 1 μM FCCP/oligomycin or no toxin (no FO). The method in brief:
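Cell death was read by DAPI staining after 6–6.5 h compound exposure in HeLa MKYP cells, either with 1 μM FCCP/oligomycin or without toxin. H2O2 served as the cell-death control.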

The next data set deals with pS129 α-syn. The data set is described as follows: Preformed fibril (PFF) model in primary neuron culture, pS129 α-syn. To be noted: increasing doses. How it is done:
4. Preformed Fibril Model
Mouse and human alpha-synuclein monomers have been sourced commercially, then pre-formed fibrils have been generated as per the detailed protocol provided by the MJFF. For in vitro experiments primary hippocampal neurons isolated from P0 pups were grown for 7 days after which PFFs at 5 ug/ml were introduced Pre-formed fibrils will be introduced via stereotactic injection into the striatum of wt (C57BL/6J, Jax #000664) and transgenic A53T mice (B6;C3-Tg(Prnp-SNCA*A53T)83Vle/J, Jax #004479). Cohorts of drug-treated (oral gavage) and untreated animals will then be allowed to age for up to 6 months, at which point they will be sacrificed and perfused. Brains will be removed and fixed, then sectioned for analysis. We anticipate that untreated A53T animals will show significant spreading of aggregated alpha-synuclein pathology and pS129 staining, as well as some possible neurodegeneration; wt animals are also expected to show pS129 synuclein staining and synuclein aggregation, albeit less than that seen in the A53T background.

The subject of data set [3] is HeLa MKYP cells. Kind of data set: Human mitophagy assay (HeLa mKeima assay, FACS). Particulars: read-out: Mitophagy induction EC50. The procedure, abridged: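 Mitophagy, read by FACS as the share of cells showing the lysosomal mtKeima emission shift, followed 6 h of 1 uM FCCP/oligomycin stimulation. Before that, HeLa MKYP cells spent 16 h with compound over a concentration range.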

Where two headings read alike, the source gives them in different places.

Broadly, the EC50 is the concentration needed to bring the measured effect to its halfway point. On to `C[C@H]1CN([C@H]2CCc3ccccc3[C@@H]2Nc2ncnc3[nH]c(C(F)(F)F)cc23)CCO1` (single isomer, unassigned) [EP-0040503], for which, in data set [1], the “Mito-Safety Index (highest safe dose/EC50)” value (“Mito-Safety Index” below) came out at 69.05 and the “Highest safe dose (μM) (mitotox or cytotox)” value (“Highest safe dose (μM)” for short) is 9.1 µM. In addition, in the data set with HeLa MKYP cells [2], the “Highest safe dose (cytotoxicity; no FO; safe means DAPI+ <20%)” value is 25.0 µM and the “Max % death with 1 μM FO” value stood at 7.4%. Also, in the data set on pS129 α-syn, the “pS129 α-syn (250-12) in primary neuron culture” value is “reduces”, the “pS129 α-syn (monomer) in primary neuron culture” value (shortened to “pS129 α-syn (monomer)”) is recorded as “reduces” and the “pS129 α-syn in primary neuron culture” value was “reduces”. Also, the EC50 with HeLa MKYP cells [3] (Homo sapiens, HeLa) turned out to be 130 nM.

For `c1ccc2c(c1)OC[C@H](C1CCOCC1)[C@H]2Nc1ncnc2[nH]c(C3CC3)cc12` (single isomer, unassigned) [EP-0040587], in data set [1], the “Mito-Safety Index” value worked out at 230.81 and the “Highest safe dose (μM)” value turned out to be 21.5 µM. Besides, in the data set with HeLa MKYP cells [2], the “Highest safe dose (cytotoxicity; no FO; safe means DAPI+ <20%)” value stood at 25.0 µM and the “Max % death with 1 μM FO” value is 21.5%. Further, in the data set with pS129 α-syn, the “pS129 α-syn (250-12) in primary neuron culture” value is reported as “reduces”, the “pS129 α-syn (monomer)” value is recorded as “reduces” and the “pS129 α-syn in primary neuron culture” value is reported as “reduces”. Moreover, the EC50 with HeLa MKYP cells [3] (Homo sapiens, HeLa) was 90 nM.

`Fc1ccc2c(c1)OC[C@H](N1C[C@@H]3COC[C@H]3C1)[C@H]2Nc1ncnc2[nH]c(C3CC3)cc12` (single isomer, unassigned) [EP-0040874]: in data set [1], the “Mito-Safety Index” value was found to be 94.72 and the “Highest safe dose (μM)” value stood at 13.9 µM. For the same compound, in the data set with HeLa MKYP cells [2], the “Highest safe dose (cytotoxicity; no FO; safe means DAPI+ <20%)” value came out at 25.0 µM and the “Max % death with 1 μM FO” value came to 14.4%. Further, in the data set on pS129 α-syn, the “pS129 α-syn (250-12) in primary neuron culture” value is “reduces”, the “pS129 α-syn (monomer)” value is recorded as “reduces” and the “pS129 α-syn in primary neuron culture” value was “reduces”. The EC50 in the data set on HeLa MKYP cells [3] amounted to 150 nM.

`c1ccc2c(c1)OCC(N1CC3CCOC3C1)C2Nc1ncnc2[nH]c(C3CC3)cc12` (single isomer, unassigned) [EP-0041668]: in the data set on HeLa MKYP cells [2], the “Highest safe dose (cytotoxicity; no FO; safe means DAPI+ <20%)” value amounted to 25.0 µM and the “Max % death with 1 μM FO” value is on record as 8.0%. For the same compound, in the data set on pS129 α-syn, the “pS129 α-syn (250-12) in primary neuron culture” value was “reduces”, the “pS129 α-syn (monomer)” value is “reduces” and the “pS129 α-syn in primary neuron culture” value is given as “reduces”. The concentration for a half-maximal effect (EC50) in the data set on HeLa MKYP cells [3] stood at 140 nM.

As for `c1ccc2c(c1)OCC(N1CC3CCOC3C1)C2Nc1ncnc2[nH]c(C3CC3)cc12` (single isomer, unassigned) [EP-0041670], in the data set on HeLa MKYP cells [2], the “Highest safe dose (cytotoxicity; no FO; safe means DAPI+ <20%)” value worked out at 25.0 µM and the “Max % death with 1 μM FO” value is 5.4%. Besides, in the data set with pS129 α-syn, the “pS129 α-syn (250-12) in primary neuron culture” value is listed as “reduces”, the “pS129 α-syn (monomer)” value was “reduces” and the “pS129 α-syn in primary neuron culture” value is listed as “reduces”. For the same compound, in the data set on HeLa MKYP cells [3], the concentration for a half-maximal effect (EC50) turned out to be 460 nM.

Regarding `COC1CN([C@@H]2COc3ccccc3[C@H]2Nc2ncnc3[nH]c(C(F)(F)F)cc23)C1` [EP-0040850], in data set [1], the “Mito-Safety Index” value came out at 88.53 and the “Highest safe dose (μM)” value was found to be 21.4 µM. Moreover, in the data set with HeLa MKYP cells [2], the “Highest safe dose (cytotoxicity; no FO; safe means DAPI+ <20%)” value was 25.0 µM and the “Max % death with 1 μM FO” value was determined as 10.3%. In addition, in the data set on pS129 α-syn, the “pS129 α-syn (250-12) in primary neuron culture” value was “reduces”, the “pS129 α-syn (monomer)” value is “reduces” and the “pS129 α-syn in primary neuron culture” value is reported as “reduces”. Moreover, in the data set on HeLa MKYP cells [3] (Homo sapiens, HeLa), the concentration giving a half-maximal response (EC50) was found to be 240 nM.

As for `COC1CN([C@H]2CCc3ccccc3[C@@H]2Nc2ncnc3[nH]c(C(F)(F)F)cc23)C1` [EP-0040857], in data set [1], the “Mito-Safety Index” value is 116.38 and the “Highest safe dose (μM)” value amounted to 18.7 µM. Further, in the data set on HeLa MKYP cells [2], the “Highest safe dose (cytotoxicity; no FO; safe means DAPI+ <20%)” value turned out to be 25.0 µM and the “Max % death with 1 μM FO” value is listed as 17.0%. Further, in the data set on pS129 α-syn, the “pS129 α-syn (250-12) in primary neuron culture” value is reported as “reduces”, the “pS129 α-syn (monomer)” value is recorded as “reduces” and the “pS129 α-syn in primary neuron culture” value was “reduces”. Further, in the data set on HeLa MKYP cells [3], the half-maximal effective concentration (EC50) was determined as 160 nM.

`C[C@@H]1CN([C@@H]2COc3cc(F)ccc3[C@H]2Nc2ncnc3[nH]c(C(F)(F)F)cc23)CCO1` [EP-0041088]: in data set [1], the “Mito-Safety Index” value amounted to 128.93 and the “Highest safe dose (μM)” value was found to be 15.7 µM. Also, in the data set with HeLa MKYP cells [2], the “Highest safe dose (cytotoxicity; no FO; safe means DAPI+ <20%)” value came to 25.0 µM and the “Max % death with 1 μM FO” value stood at 16.2%. In the data set on pS129 α-syn, the “pS129 α-syn (250-12) in primary neuron culture” value is “reduces”, the “pS129 α-syn (monomer)” value is “reduces” and the “pS129 α-syn in primary neuron culture” value is recorded as “reduces”. Besides, in the data set on HeLa MKYP cells [3] (Homo sapiens, HeLa), the EC50 came out at 120 nM.

For the compound `C[C@H]1CN([C@@H]2COc3cc(F)ccc3[C@H]2Nc2ncnc3[nH]c(C4CC4)cc23)CCO1` [EP-0041125], in data set [1], the “Mito-Safety Index” value worked out at 45.69 and the “Highest safe dose (μM)” value worked out at 7.4 µM. For the same compound, in the data set on HeLa MKYP cells [2], the “Highest safe dose (cytotoxicity; no FO; safe means DAPI+ <20%)” value was 25.0 µM and the “Max % death with 1 μM FO” value amounted to 9.6%. For the same compound, the 50% effective concentration (EC50) in the data set on HeLa MKYP cells [3] (Homo sapiens, HeLa) was 160 nM.

Consider `CO[C@@H]1CCN([C@H]2COc3ccccc3[C@@H]2Nc2ncnc3[nH]c(C(F)(F)F)cc23)C1` [EP-0041161], for which, in data set [1], the “Mito-Safety Index” value amounted to 75.49 and the “Highest safe dose (μM)” value stood at 3.4 µM. Moreover, in the data set with HeLa MKYP cells [2], the “Highest safe dose (cytotoxicity; no FO; safe means DAPI+ <20%)” value stood at 25.0 µM and the “Max % death with 1 μM FO” value was 8.5%. Moreover, in the data set on pS129 α-syn, the “pS129 α-syn (250-12) in primary neuron culture” value is reported as “reduces”, the “pS129 α-syn (monomer)” value is reported as “reduces” and the “pS129 α-syn in primary neuron culture” value is “reduces”. In the data set on HeLa MKYP cells [3] (Homo sapiens, HeLa), the 50% effective concentration (EC50) came out at 50 nM.

Consider `CO[C@H]1CCN([C@H]2COc3ccccc3[C@@H]2Nc2ncnc3[nH]c(C(F)(F)F)cc23)C1` [EP-0041172], for which, in data set [1], the “Mito-Safety Index” value came to 121.36 and the “Highest safe dose (μM)” value is 1.1 µM. Besides, in the data set with HeLa MKYP cells [2], the “Highest safe dose (cytotoxicity; no FO; safe means DAPI+ <20%)” value worked out at 25.0 µM and the “Max % death with 1 μM FO” value amounted to 8.4%. The concentration for a half-maximal effect (EC50) in the data set with HeLa MKYP cells [3] (Homo sapiens, HeLa) is 10 nM.

Turning to `CO[C@@H]1CCN([C@H]2COc3ccccc3[C@@H]2Nc2ncnc3[nH]c(C4CC4)cc23)C1` [EP-0041451], in data set [1], the “Mito-Safety Index” value came out at 87.93 and the “Highest safe dose (μM)” value turned out to be 0.7 µM. Further, in the data set with HeLa MKYP cells [2], the “Highest safe dose (cytotoxicity; no FO; safe means DAPI+ <20%)” value is 25.0 µM and the “Max % death with 1 μM FO” value worked out at 6.5%. For the same compound, the EC50 with HeLa MKYP cells [3] (Homo sapiens, HeLa) is 10 nM.

Regarding `CO[C@H]1CCN([C@H]2COc3ccccc3[C@@H]2Nc2ncnc3[nH]c(C4CC4)cc23)C1` [EP-0041517], in data set [1], the “Mito-Safety Index” value was 34.73 and the “Highest safe dose (μM)” value amounted to 1.1 µM. Moreover, in the data set with HeLa MKYP cells [2], the “Highest safe dose (cytotoxicity; no FO; safe means DAPI+ <20%)” value is 25.0 µM and the “Max % death with 1 μM FO” value was determined as 4.8%. Further, the EC50 in the data set on HeLa MKYP cells [3] (Homo sapiens, HeLa) was determined as 30 nM.

Turning to `COC[C@H]1CCN([C@H]2COc3ccccc3[C@@H]2Nc2ncnc3[nH]c(C4CC4)cc23)C1` [EP-0041546], in data set [1], the “Mito-Safety Index” value amounted to 21.52 and the “Highest safe dose (μM)” value is 3.6 µM. Further, in the data set with HeLa MKYP cells [2], the “Highest safe dose (cytotoxicity; no FO; safe means DAPI+ <20%)” value worked out at 25.0 µM and the “Max % death with 1 μM FO” value is 6.6%. The EC50 in the data set with HeLa MKYP cells [3] worked out at 170 nM.

For the origin of these results see patent US20240018146A1, “COMPOSITIONS AND METHODS OF USING THE SAME FOR TREATMENT OF NEURODEGENERATIVE AND MITOCHONDRIAL DISEASE” (MITOKININ, INC., priority 2020, published 2024).
